Data: US7119111B2, “2-oxo-1,3,4-trihydroquinazolinyl derivatives and methods of use” (Amgen, Inc., priority 2002, dated 2006)
Where a name gives a salt, the structure may show the parent alone.

Assay: Cell Proliferation Assay (BrdU incorporation)
Type: cell-based
Settings: Homo sapiens; 48 h incubation, BrdU labeling; cell line not specified; read-out: inhibited cell proliferation IC50
Protocol: Cell proliferation was measured using a calorimetric immunoassay (B/M Roche #164 7229), based on the measurement of pyrimidine analog BrdU incorporation during DNA synthesis in proliferating cells. Cells, e.g., human PC-3 prostate carconima cells, huFSF normal human foreskin fibroblast cells, HCT 116 human colon carcinoma cells or HT 29 human colon carcinoma cells, were cultured in a 96-well plate for 24 h, until a cell count of 3×10^3 to 6×10^3 cells per well in duplicate wells were achieved, in a well volume of 200 μl. The media was changed and 1 μl of 200× control inhibitors or compounds was added to each well. Cells are incubated for 48 h at 37° C. The cells were labeled with BrdU for 4 h at 37° C. The labeling medium was removed and in one step, the cells were fixed and the DNA was denatured (30 min at RT). Anti-BrdU-POD antibody was added to bind to the BrdU incorporated in newly synthesized cellular DNA (60–90 min at RT). The cells were washed 3×with washing buffer, substrate (100 μl) was added and the cells were incubated for 10 min at RT. The substrate reaction was stopped by adding 25 μl of 1M H2SO4. The amount of BrdU incorporated was quantified by measuring the absorbance at 450 nm using ELISA reader. IC50's were calculated using GraFit (Sigma).

SMILES | IC50 [µM]
COC(=O)c1cccc2c1CN(c1csc(-c3ccncc3)n1)C(=O)N2 [Example 2, Methyl 2-oxo-3-(2-(4-pyridyl)(1,3-thiazol-4-yl))-1,3,4-trihydroquinazoline-5-carboxylate] | < 5

Assay: not given
Settings: not given

SMILES | melting point [°C]
O=C1Nc2ccccc2CN1c1nc(-c2ccc(Cl)c(Cl)c2)cs1 [Example 44, 3-[4-(3,4-Dichlorophenyl)-1,3-thiazol-2-yl]-1,3,4-trihydroquinazolin-2-one] | 295 to 299
CN1CCN(c2ccc3c(c2)CN(c2nc(-c4ccncc4)cs2)C(=O)N3)CC1 [Example 38, 6-(4-Methylpiperazinyl)-3-(4-(4-pyridyl)(1,3-thiazol-2-yl))-1,3,4-trihydroquinazolin-2-one] | 301 to 304
O=C1Nc2cccc(Cl)c2CN1c1csc(-c2ccncc2)n1 [Example 11, 5-Chloro-3-(2-(4-pyridyl)(1,3-thiazol-4-yl))-1,3,4-trihydroquinazolin-2-one] | 292 to 293
O=C1Nc2cc(F)c(N3CCCCC3)cc2CN1c1csc(-c2ccncc2)n1 [Example 56, 7-Fluoro-6-piperidyl-3-(2-(4-pyridyl)(1,3-thiazol-4-yl))-1,3,4-trihydroquinazolin-2-one] | 312 to 314
O=C1Nc2cccc(F)c2CN1c1nc(-c2ccncc2)cs1 [Example 45, 5-Fluoro-3-(4-(4-pyridyl)(1,3-thiazol-2-yl))-1,3,4-trihydroquinazolin-2-one] | > 300
Cc1ccc2c(c1)CN(c1csc(-c3ccncc3)n1)C(=O)N2 [Example 7, 6-Methyl-3-(2-(4-pyridyl)(1,3-thiazol-4-yl))-1,3,4-trihydroquinazolin-2-one] | 259 to 261
CN(C)CCN(C)c1ccc2c(c1)CN(c1nc(-c3ccncc3)cs1)C(=O)N2 [Example 37, 6-{[2-(Dimethylamino)ethyl](methyl)amino}-3-(4-(4-pyridyl)(1,3-thiazol-2-yl))-1,3,4-trihydroquinazolin-2-one] | 254 to 257
O=C1Nc2cccc(Br)c2CN1c1csc(-c2ccncc2)n1 [Example 6, 5-Bromo-3-(2-(4-pyridyl)(1,3-thiazol-4-yl))-1,3,4-trihydroquinazolin-2-one] | 283 to 284
O=C1Nc2cccc(N3CCOCC3)c2CN1c1nc(-c2ccncc2)ns1 [Example 53, 5-Morpholin-4-yl-3-(3-(4-pyridyl)(1,2,4-thiadiazol-5-yl))-1,3,4-trihydroquinazolin-2-one] | > 300
O=C1Nc2ccc(N3CCCCC3)cc2CN1c1nc(-c2ccncc2)cs1 [Example 36, 6-Piperidyl-3-(4-(4-pyridyl)(1,3-thiazol-2-yl))-1,3,4-trihydroquinazolin-2-one] | > 272
O=C1Nc2ccc(F)cc2CN1c1csc(-c2ccncc2)n1 [Example 10, 6-Fluoro-3-(2-(4-pyridyl)(1,3-thiazol-4-yl))-1,3,4-trihydroquinazolin-2-one] | 290 to 291
CN1CCC[C@H]1COc1cccc2c1CN(c1nc(-c3ccncc3)ns1)C(=O)N2 [Example 55, 5-[((2S)-1-Methylpyrrolidin-2-yl)methoxy]-3-(3-(4-pyridyl)-(1,2,4-thiadiazol-5-yl))-1,3,4-trihydroquinazolin-2-one] | > 250
O=C1Nc2cccc(Cl)c2CN1c1nc(-c2ccncc2)cs1 [Example 43, 5-Chloro-3-(4-(4-pyridyl)(1,3-thiazol-2-yl))-1,3,4-trihydroquinazolin-2-one] | > 300
Cc1ccc(Oc2ccc3c(c2)CN(c2nc(-c4ccncc4)cs2)C(=O)N3)c(C)c1 [Example 40, 6-(2,4-Dimethylphenoxy)-3-(4-(4-pyridyl)(1,3-thiazol-2-yl))-1,3,4-trihydroquinazolin-2-one] | 254 to 258

The next lines start with the values.

melting point [°C] | SMILES
301 to 305 | O=C1Nc2ccccc2CN1c1ccc(-c2ccncc2)s1 [Example 47, 3-(5-(4-Pyridyl)-2-thienyl)-1,3,4-trihydroquinazolin-2-one]
> 300 | O=C1Nc2cc(C(F)(F)F)ccc2CN1c1nc(-c2ccncc2)ns1 [Example 52, 3-(3-(4-Pyridyl)(1,2,4-thiadiazol-5-yl))-7-(trifluoromethyl)-1,3,4-trihydroquinazolin-2-one]
261 to 263 | O=C1Nc2cccc(CN3CCOCC3)c2CN1c1csc(-c2ccncc2)n1 (as salt: HCl) [Example 14, 5-(Morpholin-4-ylmethyl)-3-(2-(4-pyridyl)(1,3-thiazol-4-yl))-1,3,4-trihydroquinazolin-2-one]
285 to 286 | O=C1Nc2cc(F)ccc2CN1c1csc(-c2ccncc2)n1 [Example 9, 7-Fluoro-3-(2-(4-pyridyl)(1,3-thiazol-4-yl))-1,3,4-trihydroquinazolin-2-one]
259 to 260 | O=C1Nc2cccc(OCCN3CCOCC3)c2CN1c1nc(-c2ccncc2)ns1 (as salt: salt) [Example 51, 5-(2-Morpholin-4-ylethoxy)-3-(3-(4-pyridyl)(1,2,4-thiadiazol-5-yl))-1,3,4-trihydroquinazolin-2-one]
269 to 272 | O=C1Nc2ccccc2CN1c1nc(-c2cccnc2)cs1 [Example 18, 3-(4-(3-Pyridyl)-1,3-thiazol-2-yl)-1,3,4-trihydroquinazolin-2-one]
249 to 250 | O=C1Nc2cc(CN3CCOCC3)ccc2CN1c1csc(-c2ccncc2)n1 [Example 27, 7-(Morpholin-4-ylmethyl)-3-(2-(4-pyridyl)(1,3-thiazol-4-yl))-1,3,4-trihydroquinazolin-2-one]
289 to 293 | O=C1Nc2ccccc2CN1c1nc(-c2ccc(F)c(F)c2)cs1 [Example 39, 3-[4-(3,4-Difluorophenyl)-1,3-thiazol-2-yl]-1,3,4-trihydroquinazolin-2-one]
256 to 258 | COc1cccc(-c2ccc3c(c2)NC(=O)N(c2csc(-c4ccncc4)n2)C3)c1 [Example 30, 7-(3-Methoxyphenyl)-3-(2-(4-pyridyl)(1,3-thiazol-4-yl))-1,3,4-trihydroquinazolin-2-one]
247 to 249 | O=C1Nc2cccc(F)c2CN1c1csc(-c2ccncc2)n1 [Example 13, 5-Fluoro-3-(2-(4-pyridyl)(1,3-thiazol-4-yl))-1,3,4-trihydroquinazolin-2-one]
288 to 291 | O=C1Nc2ccccc2CN1c1nc(-c2ccc(O)cc2)cs1 [Example 49, 3-[4-(4-Hydroxyphenyl)-1,3-thiazol-2-yl]-1,3,4-trihydroquinazolin-2-one]
202 to 204 | O=C1Nc2cccc(CN3CCCCCC3)c2CN1c1csc(-c2ccncc2)n1 [Example 29, 5-(Azaperhydroepinylmethyl)-3-(2-(4-pyridyl)(1,3-thiazol-4-yl))-1,3,4-trihydroquinazolin-2-one]
> 267 | O=C1Nc2ccccc2CN1c1nc(-c2ccncc2)cs1 [Example 16, 3-(4-(4-Pyridyl)-1,3-thiazol-2-yl)-1,3,4-trihydroquinazolin-2-one]
275 to 278 | COc1ccc(-c2csc(N3Cc4ccccc4NC3=O)n2)cc1 [Example 48, 3-[4-(4-Methoxyphenyl)-1,3-thiazol-2-yl]-1,3,4-trihydroquinazolin-2-one]
> 290 | O=C1Nc2ccccc2CN1c1nc(-c2ccncc2)ns1 [Example 46, 3-(3-(4-Pyridyl)-1,2,4-thiadiazol-5-yl)-1,3,4-trihydroquinazolin-2-one]
> 275 | O=C1Nc2ccccc2CN1c1nc(-c2ccccn2)cs1 [Example 17, 3-(4-(2-Pyridyl)-1,3-thiazol-2-yl)-1,3,4-trihydroquinazolin-2-one]
> 275 | CN1CCC[C@H]1COc1ccc2c(c1)CN(c1nc(-c3ccncc3)ns1)C(=O)N2 [Example 54, 6-[((2S)-1-Methylpyrrolidin-2-yl)methoxy]-3-(3-(4-pyridyl)-(1,2,4-thiadiazol-5-yl))-1,3,4-trihydroquinazolin-2-one]
278 to 280 | O=C1Nc2cccc(CN3CCCCC3)c2CN1c1csc(-c2ccncc2)n1 (as salt: HCl) [Example 15, 5-(Piperidylmethyl)-3-(2-(4-pyridyl)(1,3-thiazol-4-yl))-1,3,4-trihydroquinazolin-2-one]
248 to 250 | O=C1Nc2cc(-c3ccccc3)ccc2CN1c1csc(-c2ccncc2)n1 [Example 12, 7-Phenyl-3-(2-(4-pyridyl)(1,3-thiazol-4-yl))-1,3,4-trihydroquinazolin-2-one]
283 to 288 | COc1ccc(-c2csc(N3Cc4ccccc4NC3=O)n2)c(OC)c1 [Example 41, 3-[4-(2,4-Dimethoxyphenyl)-1,3-thiazol-2-yl]-1,3,4-trihydroquinazolin-2-one]
239 to 240 | CCc1cc(-c2nc(N3Cc4ccccc4NC3=O)cs2)ccn1 [Example 35, 3-[2-(2-Ethyl-4-pyridyl)-1,3-thiazol-4-yl]-1,3,4-trihydroquinazolin-2-one]
250 to 252 | COc1cccc(-c2cccc3c2CN(c2csc(-c4ccncc4)n2)C(=O)N3)c1 [Example 57, 5-(3-Methoxyphenyl)-3-(2-(4-pyridyl)(1,3-thiazol-4-yl))-1,3,4-trihydroquinazolin-2-one]
